34 compounds from US12377152B2, “Compounds for degrading alpha-synuclein aggregates and uses thereof” (APRINOIA THERAPEUTICS LIMITED, priority 2019, dated 2025) can be followed below.

In test [1] the target is T1, α-synuclein (Homo sapiens (Human), UniProt P37840). Briefly: PBB5 competition assay. The format is binding. As to conditions: 2 μM α-synuclein, 0.26 μM PBB5, 37° C., 1 hour. The protocol:
(§1) (A) Expression and purification of recombinant wild-type human α-synuclein: 0.5 mM IPTG was used to induce production of wild type human α-synuclein by bacteria transformed with a full-length α-synuclein expression plasmid. After shaking at 16° C. for 20 hours, cell pellet was resuspended in lysis buffer (10 mM Tris, 1 mM EGTA, 0.75 mM NaCl, 1 mM PMSF, pH 7.5) and lysed by sonication followed by centrifugation (6000 g, 30 min, 4° C.). The supernatant was then boiled at 95° C. for 15 min with manual agitation by every 5 minutes, followed by centrifugation (6000 g, 30 min, 4° C.). Supernatant was dialyzed with (10 mM Tris, 1 mM EGTA, 50 mM NaCl, pH 7.5) buffer and concentrated with concentrator. The collected sample was loaded onto a Superdex200 column, the flow-through fraction was then loaded onto a Q-HP column. Collected fractions with α-synuclein eluates were pooled, concentrated and stored at −80° C.
(§2) (B) Preparation of aggregated α-synuclein: 5 mg/mL of α-synuclein in PBS buffer (pH 7.4) was incubated in tube with at 37° C. with shaking (700 rpm) for 5-10 days.
(D) PBB5 competition assay: 2 μM of α-synuclein was incubated with 0.26 μM 2-(4-(2-(methylamino)pyridine-5-yl)-1,3-butadiene-1-yl)benzothiazole-6-ol (PBB5) and serially diluted compound (three-fold serial dilution, from 10 to 0.001 μM) in a 96-well plate at 37° C. for 1 hour. Fluorescence intensity (excitation/emission=530/690 nm) of PBB5 was read by microplate spectrometer. Percentage of competition was calculated using the following equation: (Max−well of compound alone)/(Max−Min)*100%, where Max=(α-synuclein+PBB5) signals−(buffer+PBB5) signals; and Min=(buffer+PBB5) signals−(buffer+PBB5) signals. The IC50 value of each compound was calculated with GraphPad Prism software using the “4 Parameter Logistic Model or Sigmoidal Dose-Response Model”: Y=Bottom+(Top−Bottom)/(1+(IC50/X)^HillSlope)

Test [2] has as its target T1, α-synuclein. Briefly: In vitro fluorometric α-synuclein binding assay. As to conditions: 2 μM α-synuclein, 37° C., 1 hour, fluorescence. On the procedure:
as §1, §2
(C) In vitro fluorometric α-synuclein binding assays: 2 μM α-synuclein was incubated with serially diluted compound (three-fold serial dilutions, from 10 to 0.001 μM) in a 96-well plate at 37° C. for 1 hour. Fluorescence intensity was read by microplate spectrometer. Compound Kd values were calculated using the following equation: Y=Bmax*X/(Kd+X), where X is the concentration of compound; Y is the fluorescence signal of (compound+α-synuclein)−(compound+DMSO); and Bmax is the maximum signal.

The target in a further test is α-synuclein aggregates (Homo sapiens (Human), UniProt P37840). The test is described as follows: ReNcell VM α-synuclein aggregation assay. The format is cell-based. As to conditions: for DC50: ReNcell VM cells, read-out: Activity (DC50, concentration at which 50% of α-synuclein aggregates has been degraded). On the procedure:
The ReNcell VM α-synuclein aggregation assay was conducted at Charles River Laboratories (CRL). ReNcell VM is an immortalized human neural progenitor cell line derived from the ventral mesencephalon region of the brain. ReNcell VM cells were selected as in vitro cellular model for the α-synuclein aggregation assay, based on their growth features, differentiation potential into terminally differentiated neurons and amenability to adenoviral transduction. Aggregated human wild type α-synuclein was overexpressed through adenoviral delivery. Aggregated α-synuclein was detected with the aggregate-selective anti-α-synuclein antibody MJFR14 using immunocytochemistry; total α-synuclein levels were detected with Syn205 (α/β-synuclein-specific antibody).
The ReNcell VM α-synuclein aggregation assay was applied for compound screening to identify compounds capable of degrading α-synuclein aggregates. […] Immunoreactivity toward aggregated (MJFR14) and total α-synuclein (Syn205) was quantified using high content-based segmentation of immunoactive areas in immunocytochemical images (performed with the IN Cell 2200 (GE Healthcare)), followed by quantification of immunofluorescent intensity (performed by CRL's developed algorithm using IN Cell Developer Toolbox software).
Percentage effect (PE): Inhibition in comparison to BLANK (0.1% DMSO).
PE=100−(signal of compound/average signal BLANK)×100
Compound-induced cytotoxicity (% remaining cells)
% remaining cells=(nuclei count of compound/average nuclei count of BLANK)×100

Setting [3] is: 24 hour treatment, differentiated ReNcell VM cells.

`O=C1CCC(N2Cc3cc(OCCCCCNc4cc(-c5ccc(-c6nc7ccc(F)cc7s6)cc5)ccn4)ccc3C2=O)C(=O)N1` (stereo not drawn) [Compound 165825]: the IC50 on α-synuclein [1] was more than 10 µM.
At α-synuclein [1], `COc1ccc2nc(-c3ccc(-c4ccnc(NCCOCCOc5ccc6c(c5)CN(C5CCC(=O)NC5=O)C6=O)c4)cc3)oc2c1` (stereo not drawn) [Compound 166123] displayed an IC50 of 0.41 µM. In addition, binding on α-synuclein [2] was characterised by a dissociation constant (Kd) of 0.48 µM.
Compound `CN(C)c1ccc(-c2ccc(-c3nc4ccc(C(=O)OCCOCCOCCOc5ccc6c(c5)CN(C5CCC(=O)NC5=O)C6=O)cc4s3)cc2)cn1` (stereo not drawn) [Compound 166124] returned a half-inhibitory concentration (IC50) on α-synuclein [1] of 0.03 µM. In addition, on α-synuclein [2], binding was characterised by a dissociation constant (Kd) of 0.34 µM.
`CN(C)c1ccc(-c2ccc(-c3nc4ccc(NCCCNC(=O)COc5ccc6c(c5)CN(C5CCC(=O)NC5=O)C6=O)cc4s3)c(C(F)(F)F)c2)cn1` (stereo not drawn) [Compound 166362]: the “inhibition of MJFR14 immunoreactivity” value against α-synuclein aggregates (6-day treatment, immunocytochemical images) was “clear inhibition”; on α-synuclein aggregates (setting [3]), “concentration-dependent inhibition”. The DC50 on α-synuclein aggregates was in the range of 0.9 to 10 µM.
As for `O=C1CCC(N2Cc3cc(OCCOCCNc4cc(-c5ccc(-c6nc7ccc(F)cc7s6)c(C(F)(F)F)c5)ccn4)ccc3C2=O)C(=O)N1` (stereo not drawn) [Compound 166965], the half-maximal inhibitory concentration (IC50) on α-synuclein [1] is 10 µM. The equilibrium dissociation constant (Kd) at α-synuclein [2] came out at 0.22 µM.
On to `CN(C)c1ccc(-c2ccc(-c3cn4cc(OCCOCCN5C(=O)CCC(N6C(=O)c7ccc(O)cc7C6=O)C5=O)ccc4n3)cc2)c(F)n1` (stereo not drawn) [Compound 170350], for which the DC50 at α-synuclein aggregates was in the range of 0.9 to 10 µM.
On to `CN(C)c1ccc2nc(-c3ccc(-c4ccc(NCCOCCN5C(=O)CCC(N6C(=O)c7ccc(O)cc7C6=O)C5=O)nc4)cc3)sc2c1` (stereo not drawn) [Compound 170351], for which the DC50 at α-synuclein aggregates fell in the range of 0.9 to 10 µM.
As to `CN(C)c1ccc2nc(-c3ccc(-c4ccc(NCCOCCOc5ccc6c(c5)CN(C5CCC(=O)NC5=O)C6=O)nc4)cc3)sc2c1` (stereo not drawn) [Compound 170352], the DC50 on α-synuclein aggregates was more than 10 µM.
`CN(C)c1ccc2nc(-c3ccc(-c4ccc(NCCOCCOc5ccc6c(c5)C(=O)N(C5CCC(=O)NC5=O)C6=O)nc4)cc3)sc2c1` (stereo not drawn) [Compound 170353]: at α-synuclein aggregates, the DC50 was more than 10 µM.
With `O=C1CCC(N2C(=O)c3ccc(OCCOCCNc4ccc(-c5ccc(-c6cc7ccncc7[nH]6)cc5)cn4)cc3C2=O)C(=O)N1` (stereo not drawn) [Compound 170354], the DC50 at α-synuclein aggregates was 0.01 to 0.9 µM.
Take `CN(C)c1ccc(-c2ccc(-c3nc4ccc(NCCOCCOCCOCCOCCOCCNc5cccc6c5C(=O)N(C5CCC(=O)NC5=O)C6=O)cc4s3)cc2)cn1` (stereo not drawn) [Compound 170355]: on α-synuclein aggregates, the DC50 is more than 10 µM.
On the same count and under the same terms, with `CN(C)c1ccc(-c2ccc(-c3nc4ccc(NCCOCCNc5cccc6c5C(=O)N(C5CCC(=O)NC5=O)C6=O)cc4s3)cc2)cn1` (stereo not drawn) [Compound 170356] the figure was more than 10 µM.
For `CN(C)c1ccc(-c2ccc(-c3nc4ccc(NC(=O)CCOCCOCCOc5ccc6c(c5)CN(C5CCC(=O)NC5=O)C6=O)cc4s3)cc2)cn1` (stereo not drawn) [Compound 170357], the “inhibition of MJFR14 immunoreactivity” value on α-synuclein aggregates (setting [3]) was “concentration-dependent inhibition”. Also, on α-synuclein aggregates, the DC50 lay in the range of 0.01 to 0.9 µM.
With `CN(C)c1ccc(-c2ccc(-c3nc4ccc(NC(=O)CCOCCOc5ccc6c(c5)CN(C5CCC(=O)NC5=O)C6=O)cc4s3)cc2)cn1` (stereo not drawn) [Compound 170358], the DC50 at α-synuclein aggregates is more than 10 µM.
For the compound `CN(C)c1ccc(-c2ccc(-c3cn4cc(OCCOCCOc5ccc6c(c5)CN(C5CCC(=O)NC5=O)C6=O)ccc4n3)cc2)c(F)n1` (stereo not drawn) [Compound 170450], the DC50 on α-synuclein aggregates is more than 10 µM.
On to `CN(C)c1ccc(-c2ccc(-c3cn4cc(OCCCCCOc5ccc6c(c5)CN(C5CCC(=O)NC5=O)C6=O)ccc4n3)cc2)c(F)n1` (stereo not drawn) [Compound 170451], for which the DC50 at α-synuclein aggregates was more than 10 µM.
On the same count and under the same terms, then `CN(C)c1ccc(-c2ccc(-c3nc4ccc(NC(=O)CCCOc5ccc6c(c5)CN(C5CCC(=O)NC5=O)C6=O)cc4s3)cc2)cn1` (stereo not drawn) [Compound 170742], with more than 10 µM.
In the case of `CN(C)c1ccc(-c2ccc(-c3nc4ccc(OCCOCCOCCOc5ccc6c(c5)CN(C5CCC(=O)NC5=O)C6=O)cc4s3)c(C(F)(F)F)c2)cn1` (stereo not drawn) [Compound 174251], the DC50 at α-synuclein aggregates was more than 10 µM.
Turning to `CN(C)c1ccc(-c2ccc(-c3nc4ccc(OC(=O)CCOCCOc5ccc6c(c5)CN(C5CCC(=O)NC5=O)C6=O)cc4s3)cc2)cn1` (stereo not drawn) [Compound 175552], the DC50 on α-synuclein aggregates is more than 10 µM.
For the compound `CN(C)c1ccc2nc(-c3ccc(-c4ccc(NCCOCCOc5ccc6c(c5)CN(C5CCC(=O)NC5=O)C6=O)nc4)cc3C(F)(F)F)sc2c1` (stereo not drawn) [Compound 177031], the DC50 at α-synuclein aggregates was more than 10 µM.
Compound `O=C1CCC(N2Cc3cc(OCCOCCOc4ccc5nc(-c6ccc(-c7ccc(NC8CC8)nc7)cc6)sc5c4)ccc3C2=O)C(=O)N1` (stereo not drawn) [Compound 177032] showed a Kd at α-synuclein [2] of 0.06 µM. Also, on α-synuclein aggregates, the DC50 was more than 10 µM.
On to `CN1C(=O)CCC(N2Cc3cc(OCCOCCOc4ccc5nc(-c6ccc(-c7ccc(N(C)C)nc7)cc6)sc5c4)ccc3C2=O)C1=O` (stereo not drawn) [Compound 177036], for which the DC50 on α-synuclein aggregates is more than 10 µM.
As for `COc1ccc2nc(-c3ccc(-c4ccc(NCCOCCOc5ccc6c(c5)CN(C5CCC(=O)NC5=O)C6=O)nc4)cc3)cn2c1` (stereo not drawn) [Compound 177037], the DC50 on α-synuclein aggregates was in the range of 0.9 to 10 µM.
For the compound `COc1ccc2nc(-c3ccc(-c4ccc(NCCOCCOc5cccc6c5C(=O)N(C5CCC(=O)NC5=O)C6=O)nc4)cc3)sc2c1` (stereo not drawn) [Compound 177038], the DC50 on α-synuclein aggregates was more than 10 µM.
Same read-out and setting: with `COc1ccc2nc(-c3ccc(-c4ccc(NCCOCCOc5ccc6c(c5)CN(C5CCC(=O)NC5=O)C6=O)nc4)cc3)sc2c1` (stereo not drawn) [Compound 177039] the figure was more than 10 µM; with `COc1ccc2nc(-c3ccc(-c4ccnc(NCCOCCOCC(=O)NC(C(=O)N5C[C@H](O)C[C@H]5C(=O)NCc5ccc(-c6scnc6C)cc5)C(C)(C)C)c4)cc3)cn2c1` (stereo partly drawn) [Compound 177685], more than 10 µM.
The same measure, in the same setting: then `Cc1ncsc1-c1ccc(CNC(=O)[C@@H]2C[C@@H](O)CN2C(=O)[C@@H](NC(=O)COCCOCCOc2ccc3nc(-c4ccc(-c5ccc(N(C)C)nc5)cc4)sc3c2)C(C)(C)C)cc1` [Compound 178884], with more than 10 µM; and `Cc1ncsc1-c1ccc(CNC(=O)[C@@H]2C[C@@H](O)CN2C(=O)[C@@H](NC(=O)COCCOCCNc2ccc3nc(-c4ccc(-c5ccc(N(C)C)nc5)cc4C(F)(F)F)sc3c2)C(C)(C)C)cc1` [Compound 180187], with more than 10 µM.
For `O=C1CCC(N2Cc3cc(OCCOCCNc4cc(-c5ccc(-c6nc7ccc(F)cc7s6)cc5)ccn4)ccc3C2=O)C(=O)N1` (stereo not drawn) [Compound 180948], the “inhibition of MJFR14 immunoreactivity” value on α-synuclein aggregates (setting [3]) is “concentration-dependent inhibition”. Also, on α-synuclein aggregates, the DC50 is less than 0.01 µM.
Consider `CN(C)c1ccc(-c2ccc(-c3nc4ccc(OCCOCCOc5cccc6c5CN(C5CCC(=O)NC5=O)C6=O)cc4s3)c(C(F)(F)F)c2)cn1` (stereo not drawn) [Compound 180950], for which the DC50 at α-synuclein aggregates is more than 10 µM.
Take `CN(C)c1ccc(-c2ccc(-c3nc4ccc(OCCCOc5ccc6c(c5)CN(C5CCC(=O)NC5=O)C6=O)cc4s3)cc2)cn1` (stereo not drawn) [Compound 184605]: the DC50 at α-synuclein aggregates is more than 10 µM.
As to `CN(C)c1ccc(-c2ccc(-c3nc4ccc(NCCOCCOc5cccc6c5CN(C5CCC(=O)NC5=O)C6=O)cc4s3)c(C(F)(F)F)c2)cn1` (stereo not drawn) [Compound 185563], at α-synuclein aggregates, the DC50 is more than 10 µM.
Regarding `CN(C)c1ccc(-c2ccc(-c3nc4ccc(OCCCCC(=O)Nc5cccc6c5CN(C5CCC(=O)NC5=O)C6=O)cc4s3)cc2)cn1` (stereo not drawn) [Compound 189149], the DC50 on α-synuclein aggregates was more than 10 µM.
Consider `COc1ccc2nc(-c3ccc(-c4ccnc(NCCOCCOc5cccc6c5CN(C5CCC(=O)NC5=O)C6=O)c4)cc3)cn2c1` (stereo not drawn) [Compound 190753], for which, on α-synuclein aggregates, the DC50 was more than 10 µM.
